According to paper PMC1977928, “Chlorambucil-monoglutathionyl conjugate is sequestered by human alpha class glutathione S-transferases” (British Journal of Cancer, 1992):

How the values were obtained:
Format in all cases: biochemical
GST P1-1 = molecular target: T1, GST P1-1 (Homo sapiens, UniProt P09211); test: inhibition of CDNB conjugation activity
T1 construct: gene GSTP1; homodimer purified from human kidney cytosol

GST M1a-1a = molecular target: T2, GST M1a-1a (Homo sapiens, UniProt P09488); test: inhibition of CDNB conjugation activity
T2 construct: gene GSTM1; homodimer purified from human liver cytosol
T2 sequence (P09488 2-218): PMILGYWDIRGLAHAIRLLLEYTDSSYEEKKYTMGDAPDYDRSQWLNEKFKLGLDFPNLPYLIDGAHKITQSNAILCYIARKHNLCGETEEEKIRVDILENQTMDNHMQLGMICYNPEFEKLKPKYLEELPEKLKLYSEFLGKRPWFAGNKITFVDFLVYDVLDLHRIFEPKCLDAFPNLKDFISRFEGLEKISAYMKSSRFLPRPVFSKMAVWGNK

GST A1-1 = molecular target: T3, GST A1-1 (Homo sapiens, UniProt P08263); test: inhibition of CDNB conjugation activity (Dixon and Hanes plots)
T3 construct: gene GSTA1; homodimer purified from human liver cytosol
T3 sequence (P08263 2-222): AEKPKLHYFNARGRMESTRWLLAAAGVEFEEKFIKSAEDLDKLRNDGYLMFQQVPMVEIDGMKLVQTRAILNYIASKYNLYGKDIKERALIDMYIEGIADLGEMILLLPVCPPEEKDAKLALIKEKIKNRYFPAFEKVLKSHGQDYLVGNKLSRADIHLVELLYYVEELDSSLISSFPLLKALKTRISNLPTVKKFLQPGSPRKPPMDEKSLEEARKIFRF
From the text: inhibition of CDNB conjugation activity (Dixon and Hanes plots) on GST A1-1 | CHBSG was a pure competitive inhibitor of the activity of GSTs A1-1 and A2-2 towards 1-chloro-2,4-dinitrobenzene

GST A2-2 = molecular target: T4, GST A2-2 (Homo sapiens, UniProt P09210); test: as above
T4 construct: gene GSTA2; homodimer purified from human liver cytosol
T4 sequence (P09210 2-222): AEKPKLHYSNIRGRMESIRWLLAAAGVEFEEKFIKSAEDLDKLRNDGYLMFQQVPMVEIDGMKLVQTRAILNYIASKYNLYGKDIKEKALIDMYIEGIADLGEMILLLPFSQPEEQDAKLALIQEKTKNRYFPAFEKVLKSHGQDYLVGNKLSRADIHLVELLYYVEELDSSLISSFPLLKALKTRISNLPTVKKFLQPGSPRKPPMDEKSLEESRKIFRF

T1 sequence (P09211 2-210): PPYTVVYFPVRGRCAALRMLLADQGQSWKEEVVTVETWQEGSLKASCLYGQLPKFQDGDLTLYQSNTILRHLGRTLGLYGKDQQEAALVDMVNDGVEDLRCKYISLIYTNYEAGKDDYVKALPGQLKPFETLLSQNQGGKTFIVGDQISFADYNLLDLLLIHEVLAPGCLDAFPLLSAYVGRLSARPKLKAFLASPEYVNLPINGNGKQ

For `N[C@@H](CCC(=O)N[C@@H](CSCCN(CCCl)c1ccc(CCCC(=O)O)cc1)C(=O)NCC(=O)O)C(=O)O` [CHBSG], the “inhibition of CDNB conjugation activity” value (GST P1-1) was > 10 µM, the “inhibition of CDNB conjugation activity” value (GST M1a-1a) was > 10 µM and the Ki (GST A1-1) was 1.3 µM. It also gave a Ki (GST A2-2) of 1.2 µM.
